Laboratory results taken from ChEMBL document CHEMBL3046545, “Simple and efficient synthetic routes to bioactive s-triazinyl dithiocarbamate derivatives” (2008).

Experiments:
Assay type in all cases: functional
Escherichia coli = experiment: Antibacterial activity against Escherichia coli at […] after 24 hr by agar well diffusion assay
Streptococcus pyogenes = experiment: Antibacterial activity against Streptococcus pyogenes at […] after 24 hr by agar well diffusion assay
Aspergillus niger = experiment: Antifungal activity against Aspergillus niger at […] after 24 hr by agar well diffusion assay
Bacillus subtilis = experiment: Antibacterial activity against Bacillus subtilis at […] after 24 hr by agar well diffusion assay

| SMILES | inhibition zone (IZ) (Escherichia coli) [mm] | inhibition zone (IZ) (Streptococcus pyogenes) [mm] | inhibition zone (IZ) (Aspergillus niger) [mm] | inhibition zone (IZ) (Bacillus subtilis) [mm] |
| --- | --- | --- | --- | --- |
| CCOc1ccc(NC(=S)Sc2nc(Nc3cccc(C)c3)nc(Nc3cccc(C)c3)n2)cc1 | 14 | 13 | 18 | 13 |
| Cc1cccc(Nc2nc(Nc3cccc(C)c3)nc(SC(=S)Nc3ccccc3C)n2)c1 | 12 | 11 | 23 | 12 |
| Cc1cccc(NC(=S)Sc2nc(Nc3cccc(C)c3)nc(Nc3cccc(C)c3)n2)c1 | 15 | 12 | 20 | 14 |
| Cc1ccc(NC(=S)Sc2nc(Nc3cccc(C)c3)nc(Nc3cccc(C)c3)n2)cc1 | 19 | 15 | 14 | 15 |
| COc1ccccc1NC(=S)Sc1nc(Nc2cccc(C)c2)nc(Nc2cccc(C)c2)n1 | 13 | 14 | 18 | 14 |
| COc1ccc(NC(=S)Sc2nc(Nc3cccc(C)c3)nc(Nc3cccc(C)c3)n2)cc1 | 12 | 15 | 17 | 12 |
| Cc1cccc(Nc2nc(Nc3cccc(C)c3)nc(SC(=S)Nc3ccccc3[N+](=O)[O-])n2)c1 | 15 | 14 | 16 | 15 |
| Cc1cccc(Nc2nc(Nc3cccc(C)c3)nc(SC(=S)Nc3ccc([N+](=O)[O-])cc3)n2)c1 | 13 | 15 | 17 | 13 |
| Cc1cccc(Nc2nc(Nc3cccc(C)c3)nc(SC(=S)NN3CCOCC3)n2)c1 | 12 | 13 | 15 | 12 |
| CC(=O)N(C(C)=O)C(=S)Sc1nc(Nc2cccc(C)c2)nc(Nc2cccc(C)c2)n1 | 11 | 11 | 14 | 12 |
| Cc1cccc(Nc2nc(SC(=S)Nc3ccccc3)nc(SC(=S)Nc3ccccc3)n2)c1 | 12 | 12 | 12 | 15 |
| Cc1cccc(Nc2nc(SC(=S)Nc3ccc(Cl)cc3)nc(SC(=S)Nc3ccc(Cl)cc3)n2)c1 | 15 | 18 | 17 | 18 |
| CCOc1ccc(NC(=S)Sc2nc(Nc3cccc(C)c3)nc(SC(=S)Nc3ccc(OCC)cc3)n2)cc1 | 16 | 15 | 12 | 14 |
| Cc1cccc(Nc2nc(SC(=S)Nc3ccccc3C)nc(SC(=S)Nc3ccccc3C)n2)c1 | 12 | 12 | 13 | 19 |
| Cc1cccc(NC(=S)Sc2nc(Nc3cccc(C)c3)nc(SC(=S)Nc3cccc(C)c3)n2)c1 | 13 | 12 | 14 | 13 |
| Cc1ccc(NC(=S)Sc2nc(Nc3cccc(C)c3)nc(SC(=S)Nc3ccc(C)cc3)n2)cc1 | 13 | 13 | 20 | 19 |
| COc1ccccc1NC(=S)Sc1nc(Nc2cccc(C)c2)nc(SC(=S)Nc2ccccc2OC)n1 | 15 | 11 | 14 | 15 |
| COc1ccc(NC(=S)Sc2nc(Nc3cccc(C)c3)nc(SC(=S)Nc3ccc(OC)cc3)n2)cc1 | 15 | 14 | 15 | 15 |
| Cc1cccc(Nc2nc(SC(=S)Nc3ccccc3[N+](=O)[O-])nc(SC(=S)Nc3ccccc3[N+](=O)[O-])n2)c1 | 17 | 13 | 19 | 14 |
| Cc1cccc(Nc2nc(SC(=S)Nc3ccc([N+](=O)[O-])cc3)nc(SC(=S)Nc3ccc([N+](=O)[O-])cc3)n2)c1 | 15 | 17 | 16 | 16 |
| Cc1cccc(Nc2nc(SC(=S)NN3CCOCC3)nc(SC(=S)NN3CCOCC3)n2)c1 | 12 | 14 | 13 | 13 |
| CCN(CC)C(=S)Sc1nc(Nc2cccc(C)c2)nc(SC(=S)N(CC)CC)n1 | 12 | 12 | 13 | 12 |
| Cc1cccc(Nc2nc(Nc3cccc(C)c3)nc(SC(=S)Nc3ccccc3)n2)c1 | 13 | 15 | 17 | 12 |
| Cc1cccc(Nc2nc(Nc3cccc(C)c3)nc(SC(=S)Nc3ccc(Cl)cc3)n2)c1 | 15 | 13 | 16 | 12 |
| CC1(C)S[C@@H]2[C@H](NC(=O)[C@H](N)c3ccccc3)C(=O)N2[C@H]1C(=O)O [AMPICILLIN] | 24 | 26 | – | 22 |
| O=C(N[C@H](CO)[C@H](O)c1ccc([N+](=O)[O-])cc1)C(Cl)Cl [CHLORAMPHENICOL] | 19 | 22 | – | 28 |
| COC1=CC(=O)C[C@@H](C)[C@]12Oc1c(Cl)c(OC)cc(OC)c1C2=O [GRISEOFULVIN] | – | – | 20 | – |
| CCn1cc(C(=O)O)c(=O)c2cc(F)c(N3CCNCC3)cc21 [NORFLOXACIN] | 25 | 26 | – | 19 |
